Assay results from US20150218212A1, “FLUORINATED EPOXYKETONE-BASED TETRAPEPTIDE COMPOUNDS AND USES THEREOF AS PROTEASOME INHIBITORS” (FLUORINOV PHARMA INC., priority 2012, published 2015).

Assays:
Format in all cases: cell-based, human
T-47D = assay: NCI screening panel, T-47D (Breast Cancer)
Description: (§1) Representative compounds of Formula I were screened using the National Cancer Institute (NCI) screening panel, which consists of a panel of human tumor cell lines, representing leukemia, melanoma, and cancers of the lung, colon, ovary, breast, prostate and renal system.
(§2) After 24 h, two plates of each cell line are fixed in situ with TCA, to represent a measurement of the cell population for each cell line at the time of drug addition (Tz). Experimental drugs are solubilised in dimethyl sulfoxide at 400-fold the desired final maximum test concentration and stored frozen prior to use. At the time of drug addition, an aliquot of frozen concentrate is thawed and diluted to twice the desired final maximum test concentration with complete medium containing 50 μg/mL gentamicin. Additional four, 10-fold or ½ log serial dilutions are made to provide a total of five drug concentrations plus control. Aliquots of 100 μl of these different drug dilutions are added to the appropriate microtiter wells already containing 100 μl of medium, resulting in the required final drug concentrations.
(§3) Following drug addition, the plates are incubated for an additional 48 h at 37° C., 5% CO2, 95% air, and 100% relative humidity. For adherent cells, the assay is terminated by the addition of cold TCA (trichloroacetic acid). Cells are fixed in situ by the gentle addition of 50 μl of cold 50% (w/v) TCA (final concentration, 10% TCA) and incubated for 60 minutes at 4° C. The supernatant is discarded, and the plates are washed five times with tap water and air dried. Sulforhodamine B (SRB) solution (100 μl) at 0.4% (w/v) in 1% acetic acid is added to each well, and plates are incubated for 10 minutes at room temperature. After staining, unbound dye is removed by washing five times with 1% acetic acid and the plates are air dried. Bound stain is subsequently solubilised with 10 mM trizma base, and the absorbance is read on an automated plate reader at a wavelength of 515 nm. For suspension cells, the methodology is the same except that the assay is terminated by fixing settled cells at the bottom of the wells by gently adding 50 μl of 80% TCA (final concentration, 16% TCA). Using the seven absorbance measurements [time zero, (Tz), control growth, (C), and test growth in the presence of drug at the five concentration levels (Ti)], the percentage growth is calculated at each of the drug concentrations levels. Percentage growth inhibition is calculated as: [(Ti−Tz)/(C−Tz)]×100 for concentrations for which Ti>/=Tz and [(Ti−Tz)/Tz]×100 for concentrations for which Ti<Tz.
(§4) Three dose response parameters are calculated for each experimental agent. Growth inhibition of 50% (GI50) is calculated from [(Ti−Tz)/(C−Tz)]×100=50, which is the drug concentration resulting in a 50% reduction in the net protein increase (as measured by SRB staining) in control cells during the drug incubation. The drug concentration resulting in total growth inhibition (TGI) is calculated from Ti=Tz. The LC50 (concentration of drug resulting in a 50% reduction in the measured protein at the end of the drug treatment as compared to that at the beginning) indicating a net loss of cells following treatment is calculated from [(Ti−Tz)/Tz]×100=−50. Values are calculated for each of these three parameters if the level of activity is reached. However, if the effect is not reached or is exceeded, the value for that parameter is expressed as greater or less than the maximum or minimum concentration tested.

CAKI-1 = assay: NCI screening panel, CAKI-1 (Renal Cancer)
Description: as §1, §2, §3, §4

HCC-2998 = assay: NCI screening panel, HCC-2998 (Colon Cancer)
Description: as §1, §2, §3, §4

MALME-3M = assay: NCI screening panel, MALME-3M (Melanoma)
Description: as §1, §2, §3, §4

TK-10 = assay: NCI screening panel, TK-10 (Renal Cancer)
Description: as §1, §2, §3, §4

HOP-62 = assay: NCI screening panel, HOP-62 (Non-Small Cell Lung Cancer)
Description: as §1, §2, §3, §4

SK-MEL-28 = assay: NCI screening panel, SK-MEL-28 (Melanoma)
Description: as §1, §2, §3, §4

HCT-116 = assay: NCI screening panel, HCT-116 (Colon Cancer)
Description: as §1, §2, §3, §4

SF-295 = assay: NCI screening panel, SF-295 (CNS Cancer)
Description: as §1, §2, §3, §4

OVCAR-5 = assay: NCI screening panel, OVCAR-5 (Ovarian Cancer)
Description: as §1, §2, §3, §4

SW-620 = assay: NCI screening panel, SW-620 (Colon Cancer)
Description: as §1, §2, §3, §4

UACC-257 = assay: NCI screening panel, UACC-257 (Melanoma)
Description: as §1, §2, §3, §4

OVCAR-8 = assay: NCI screening panel, OVCAR-8 (Ovarian Cancer)
Description: as §1, §2, §3, §4

NCI-H226 = assay: NCI screening panel, NCI-H226 (Non-Small Cell Lung Cancer)
Description: as §1, §2, §3, §4

PC-3 = assay: NCI screening panel, PC-3 (Prostate Cancer)
Description: as §1, §2, §3, §4

NCI-H23 = assay: NCI screening panel, NCI-H23 (Non-Small Cell Lung Cancer)
Description: as §1, §2, §3, §4

NCI-H322M = assay: NCI screening panel, NCI-H322M (Non-Small Cell Lung Cancer)
Description: as §1, §2, §3, §4

MOLT-4 = assay: NCI screening panel, MOLT-4 (Leukemia)
Description: as §1, §2, §3, §4

SF-268 = assay: NCI screening panel, SF-268 (CNS Cancer)
Description: as §1, §2, §3, §4

SMILES: CC(C)C[C@H](NC(=O)[C@H](COC(F)F)NC(=O)[C@H](COC(F)F)NC(=O)[C@H](CCc1ccccc1)NC(=O)CN1CCOCC1)C(=O)[C@@]1(C)CO1 [Example 7, (2S)-N-[(1S)-1-(difluoromethoxymethyl)-2-[[(1S)-1-(difluoromethoxymethyl)-2-[[(1S)-3-methyl-1-[(2R)-2-methyloxirane-2-carbo-nyl]butyl]amino]-2-oxo-ethyl]amino]-2-oxo-ethyl]-2-[(2-morpholinoacetyl)amino]-4-phenyl-butanamide]
- Log10GI50 (T-47D): −7.85
- Log10LC50 (T-47D): >−4.00
- Log10TGI50 (T-47D): −7.32
- Log10GI50 (CAKI-1): −6.40
- Log10LC50 (CAKI-1): >−4.00
- Log10TGI50 (CAKI-1): −5.62
- Log10GI50 (HCC-2998): −7.60
- Log10LC50 (HCC-2998): −6.55
- Log10TGI50 (HCC-2998): −7.21
- Log10GI50 (MALME-3M): −7.39
- Log10LC50 (MALME-3M): >−4.00
- Log10TGI50 (MALME-3M): −6.75
- Log10GI50 (TK-10): −6.56
- Log10LC50 (TK-10): >−4.00
- Log10TGI50 (TK-10): −5.24
- Log10GI50 (HOP-62): −7.63
- Log10LC50 (HOP-62): >−4.00
- Log10TGI50 (HOP-62): −7.00
- Log10GI50 (SK-MEL-28): −7.44
- Log10TGI50 (SK-MEL-28): >−4.00
- Log10GI50 (HCT-116): <−8.00
- Log10LC50 (HCT-116): >−4.00
- Log10TGI50 (HCT-116): −6.78
- Log10GI50 (SF-295): −7.60
- Log10LC50 (SF-295): −6.15
- Log10TGI50 (SF-295): −6.97
- Log10GI50 (OVCAR-5): −7.31
- Log10LC50 (OVCAR-5): >−4.00
- Log10TGI50 (OVCAR-5): −6.14
- Log10GI50 (SW-620): −7.61
- Log10LC50 (SW-620): >−4.00
- Log10TGI50 (SW-620): −5.63
- Log10GI50 (UACC-257): −6.80
- Log10LC50 (UACC-257): >−4.00
- Log10TGI50 (UACC-257): −6.03
- Log10GI50 (OVCAR-8): −6.94
- Log10LC50 (OVCAR-8): >−4.00
- Log10TGI50 (OVCAR-8): −5.93
- Log10GI50 (NCI-H226): −7.75
- Log10LC50 (NCI-H226): −7.08
- Log10TGI50 (NCI-H226): −7.41
- Log10GI50 (PC-3): −7.49
- Log10LC50 (PC-3): −5.41
- Log10TGI50 (PC-3): −6.86
- Log10GI50 (NCI-H23): −7.57
- Log10LC50 (NCI-H23): >−4.00
- Log10TGI50 (NCI-H23): −5.58
- Log10GI50 (NCI-H322M): −7.04
- Log10LC50 (NCI-H322M): −4.81
- Log10TGI50 (NCI-H322M): −6.35
- Log10GI50 (MOLT-4): −7.71
- Log10LC50 (MOLT-4): >−4.00
- Log10TGI50 (MOLT-4): −6.85
- Log10GI50 (SF-268): −7.73
- Log10LC50 (SF-268): >−4.00
- Log10TGI50 (SF-268): −7.21

SMILES: CC(C)C[C@H](NC(=O)[C@H](Cc1ccccc1)NC(=O)[C@H](COC(F)F)NC(=O)[C@H](COC(F)F)NC(=O)CN1CCOCC1)C(=O)[C@@]1(C)CO1 [Example 11, (2S)-2-[[(2S)-3-(difluoromethoxy)-2-[[(2S)-3-(difluoromethoxy)-2-[(2-morpholinoacetyl)-amino]propanoyl]amino]propanoyl]amino]-N-[(1S)-3-methyl-1-[(2R)-2-methyloxirane-2-carbonyl]butyl]-3-phenyl-propanamide]
- Log10GI50 (T-47D): −7.71
- Log10TGI50 (T-47D): >−4.00
- Log10GI50 (CAKI-1): −6.39
- Log10LC50 (CAKI-1): >−4.00
- Log10TGI50 (CAKI-1): −5.55
- Log10GI50 (HCC-2998): −7.66
- Log10LC50 (HCC-2998): −6.95
- Log10TGI50 (HCC-2998): −7.33
- Log10GI50 (MALME-3M): −7.14
- Log10LC50 (MALME-3M): >−4.00
- Log10TGI50 (MALME-3M): −6.30
- Log10GI50 (TK-10): −6.80
- Log10LC50 (TK-10): >−4.00
- Log10TGI50 (TK-10): −5.30
- Log10GI50 (HOP-62): −7.56
- Log10LC50 (HOP-62): >−4.00
- Log10TGI50 (HOP-62): −4.94
- Log10GI50 (SK-MEL-28): −7.20
- Log10LC50 (SK-MEL-28): >−4.00
- Log10TGI50 (SK-MEL-28): −5.55
- Log10GI50 (HCT-116): <−8.00
- Log10LC50 (HCT-116): −4.54
- Log10TGI50 (HCT-116): −7.06
- Log10GI50 (SF-295): −5.96
- Log10LC50 (SF-295): −5.17
- Log10TGI50 (SF-295): −5.56
- Log10GI50 (OVCAR-5): −7.37
- Log10LC50 (OVCAR-5): >−4.00
- Log10TGI50 (OVCAR-5): −6.46
- Log10GI50 (SW-620): −7.63
- Log10LC50 (SW-620): >−4.00
- Log10TGI50 (SW-620): −5.97
- Log10GI50 (UACC-257): −6.79
- Log10LC50 (UACC-257): >−4.00
- Log10TGI50 (UACC-257): −6.14
- Log10GI50 (OVCAR-8): −6.94
- Log10LC50 (OVCAR-8): >−4.00
- Log10TGI50 (OVCAR-8): >−4.00
- Log10GI50 (NCI-H226): −7.77
- Log10LC50 (NCI-H226): −7.11
- Log10TGI50 (NCI-H226): −7.44
- Log10GI50 (PC-3): −7.32
- Log10LC50 (PC-3): >−4.00
- Log10TGI50 (PC-3): −6.51
- Log10GI50 (NCI-H23): −7.50
- Log10LC50 (NCI-H23): >−4.00
- Log10TGI50 (NCI-H23): −5.55
- Log10GI50 (NCI-H322M): −6.85
- Log10LC50 (NCI-H322M): −4.06
- Log10TGI50 (NCI-H322M): −6.03
- Log10GI50 (MOLT-4): <−8.00
- Log10LC50 (MOLT-4): >−4.00
- Log10TGI50 (MOLT-4): −6.83
- Log10GI50 (SF-268): −7.66
- Log10LC50 (SF-268): −4.07
- Log10TGI50 (SF-268): −7.22
